Results from patent US20160106099A1, “MICROBICIDAL COMPOSITION COMPRISING ISOTHIAZOLONE AND AN AMINE OXIDE” (THOR GMBH, priority 2013, published 2016).

Assays:
[1] = tested on: Candida albicans (ATCC 10231); assay: Minimum inhibitory concentration and synergy index according to Kull et al.; format: cell-based; details: for Synergistic Index Qa/QA + Qb/QB: MIT + amine oxide
Experimental: (§1) The synergism of a combination of 2-Methyl-isothiazolinone (MIT) with N,N-Dimethyldodecan-1-amine oxide was tested. Test organisms used was the mould Aspergillus niger (DSM 12623). For the purpose of the test, mixtures containing different concentrations of MIT and N,N-Dimethyldodecan-1-amine oxide were prepared and tested for their action on Aspergillus niger. […] The MIC is the concentration at which there is no formation of colonies or mycelia on the surface of the agar (Aspergillus niger).
(§2) The synergism that occurred was presented numerically by calculation of the synergy index (SI). This calculation was made using the common method of F. C. Kull et al., Applied Microbiology, vol. 9 (1961), p. 538. SI is calculated there in accordance with the following formula:
(§3) Synergy index SI=Qa/QA+Qb/QB
(§4) Qa=concentration of MIT in the mixture of N,N-Dimethyldodecan-1-amine oxide+MIT QA=concentration of MIT as sole biocide Qb=concentration of N,N-Dimethyldodecan-1-amine oxide in the biocide mixture of N,N-Dimethyldodecan-1-amine oxide+MIT QB=concentration of N,N-Dimethyldodecan-1-amine oxide as sole biocide
(§5) If the synergy index has a value of more than 1, this means that there is an antagonism. If the synergy index adopts a value of 1, this means that the action of the two biocides is additive. If the synergy index takes on a value of below 1, this means that there is synergism of the two biocides.
Determination of the Synergy Index According to Kull et al. of N,N-Dimethyldodecan-1-amine oxide+MIT in Respect of Candida albicans (ATCC 10231)
The cell density of Candida albicans (ATCC 10231) was 10^6/ml, incubation time 72 hours, temperature 25° C.
Determination of the Synergy Index According to Kull et al. of N,N-Dimethyldodecan-1-amine oxide+MIT+2-n-octyl-4-isothiazolin-3-one (OIT) in Respect of Candida albicans (ATCC 10231)

[2] = tested on: Aspergillus niger (DSM 12623); assay: Minimum inhibitory concentration and synergy index (Kull) in Sabouraud glucose agar, visual growth reading; format: cell-based; details: 72 hours at 25° C.; for Synergistic Index Qa/QA + Qb/QB: below 1 = synergism, 1 = additive, above 1 = antagonism
Experimental: as §1, §2, §3
In the application of this formula to the MIT+N,N-Dimethyldodecan-1-amine oxide biocide system tested here, the variables in the formula have the following definition:
as §4, §5
Determination of the Synergy Index of N,N-Dimethyldodecan-1-amine oxide+MIT in Respect of Aspergillus niger for an Incubation Time of 72 Hours at 25° C.

[3] = Table 2, sum of MIT and amine oxide at MIC

Compound | Total ([1]; Table 3) | Synergistic Index ([1]; Table 3, MIT + amine oxide + OIT) | Qb/QB ([1]; Table 3, OIT component) | MHK Qb (OIT) ([1]; Table 3, OIT concentration at MIC, alone or with MIT + amine oxide) | Synergistic Index Qa/QA + Qb/QB ([1]; Table 2, 72 hours, 25° C.) | MHK Qa (MIT) ([1]; Table 2, MIT concentration at MIC, alone or in mixture with amine oxide, 10^6/ml, 72 hours, 25° C.) | Qa/QA ([1]; Table 2, MIT in mixture / MIT as sole biocide) | Total [1, 3] | Synergistic Index Qa/QA + Qb/QB [2] | MHK Qa (MIT) ([2]; MIT concentration at MIC, alone (MIC) or in mixture with amine oxide, 3,7·10^6 spores per ml) | MHK Qb (Amine oxide) ([1]; Table 2, amine oxide concentration at MIC, alone or in mixture with MIT, 72 hours, 25° C.) | Qb/QB ([1]; Table 2, amine oxide in mixture / amine oxide as sole biocide) | MHK Qb (Amine oxide) ([2]; amine oxide concentration at MIC, alone (MIC) or in mixture with MIT)
CCCCCCCCn1sccc1=O [OIT, 2-n-octyl-4-isothiazolin-3-one] | 3 ppm | 1.00 | 1.00 | 3 ppm | – | – | – | – | – | – | – | – | –
Cn1sccc1=O [MIT, 2-methylisothiazolin-3-one] | – | – | – | – | 1.00 | 125 ppm | 1.00 | 125 ppm | 1.00 | 1000 (MIC) ppm | – | – | –
CCCCCCCCCCCC[N+](C)(C)[O-] [Amine oxide, N,N-Dimethyldodecan-1-amine oxide] | – | – | – | – | 1.00 | – | – | 50 ppm | 1.00 | – | 50 ppm | 1.00 | 231 (MIC) ppm
